# Target: T1, glucocorticoid receptor (Homo sapiens, UniProt P04150)
# T1 construct: expressed in transfected cells
# T1 sequence (P04150 524-758 limits assumed): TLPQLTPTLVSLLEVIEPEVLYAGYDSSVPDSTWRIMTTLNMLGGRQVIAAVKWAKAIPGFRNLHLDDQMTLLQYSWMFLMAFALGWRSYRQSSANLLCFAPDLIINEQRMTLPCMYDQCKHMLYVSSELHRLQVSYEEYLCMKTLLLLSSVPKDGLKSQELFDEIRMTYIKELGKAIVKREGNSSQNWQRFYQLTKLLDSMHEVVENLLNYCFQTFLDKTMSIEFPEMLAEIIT
# Test: Agonistic mode of action on the glucocorticoid receptor (CHO-Gal4/GR luciferase reporter cell line)
# Assay type: cell-based
# Conditions: range class observed in the agonistic assay or the antagonistic assay (CHO-Gal4/GR reporter cells); table does not say which mode applies per example
# Text: Potential selective glucocorticoid receptor modulators of this intervention can be tested for modulation of the activity of the glucocorticoid receptor using cell-based assays. These assays involve a Chinese hamster ovary (CHO) cell line which contains fragments of the glucocorticoid receptor as well as fusion proteins. The glucocorticoid receptor fragments used are capable of binding the ligand (e.g. beclomethasone) to identify molecules that compete for binding with glucocorticoid receptor ligands. In more detail, the glucocorticoid receptor ligand binding domain is 25 fused to the DNA binding domain (DBD) of the transcriptionfactor GAL4 (GAL4 DBD-GR) and is stably integrated into a CHO cell line containing a GAL4-UAS-Luciferase reporter construct. […] After cell lysis the luminescence that is produced by luciferase after addition of the substrate is detected and EC50 or IC50 values can be calculated. Engagement of molecules which induce gene expression via glucocortocoid receptor binding to the DNA leads to expression of the luciferase gene under the control of the fusion protein GAL4 DBD-GR and therefore to a dose-dependent increase of the luminescence signal. Binding of molecules which repress beclomethasone-induced gene expression of the luciferase gene under the control of the fusion protein GAL4 DBD-GR leads to a dose-dependent reduction of the luminescence signal.
# Biological Assays Agonistic Mode of Action on the Glucocorticoid Receptor
# The reporter cell line CHO-Gal4/GR consisted of a Chinese hamster ovary (CHO) cell line (Leibniz Institute DSMZ—German Collection of Microorganisms and Cell CuItures GmbH: ACC-110) containing a firefly luciferase gene under the control of the GR ligand binding domain fused to the DNA binding domain (DBD) of GAL4 (GAL4 DBD-GR) stably integrated into CHO cells. This cell line was established by stable transfection of CHO cells with a GAL4-UAS-Luciferase reporter construct. In a subsequent step the ligand binding domain of the GR cloned into pIRES2-EGFP-GAL4 containing the DNA binding domain of GAL4 from pFA-AT2 was transfected. This fusion construct activated firefly luciferase expression under the control of a multimerized GAL4 upstream activation sequence (UAS). The signal of the emitted luminescence was recorded by the FLIPR^TETRA. This allowed for specific detection of ligand-induced activation of the GR and therefore for the identification of compounds with agonistic properties. The GAL4/UAS reporter was premixed with a vector that constitutively expressed Renilla luciferase, which served as an internal positive control for transfection efficiency.
# The complete culture medium for the assay was: • DMEM F-12 (1:1) MIXTURE (LONZA cat. N°: BE04-687F/U1) 500 mL • 5 mL of 100 mM Sodium Pyruvate (LONZA cat. N°: BE12-115E) • 25 mL of 7.5% Sodium Bicarbonate (LONZA cat. N° BE17-613E) • 6.5 mL of 1 M Hepes (LONZA cat. N°: BE17-737E) • 5 mL of 100× Penicillin/Streptomycin (LONZA cat. N° DE17-602E) • 50 mL of Fetal Bovine Serum (Euroclone cat. N° ECS 0180L) • 0.25 mL of 10 mg/mL Puromycin (InvivoGen cat.: ant-pr-1) • 0.5 mL of 100 mg/mL Zeocin (InvivoGen cat.: ant-zn-1)
# Cryo-preserved CHO-Gal4/GR cells were suspended in complete medium and 5000 cells/25 μl/well were seeded into the wells of 384-well polystyrene assay plates (Thermo Scientific, cat. #4332) and cultured at 37° C., 5% CO2 and 95% humidity. After 24 hours growth medium was carefully removed and replaced by 30 μl Opti-MEM (GIBCO, cat. #31985062) as assay buffer. To test the compounds an 8-point half-log compound dilution curve was generated in 100% DMSO starting from a 2 mM stock and compounds were then diluted 1:50 in Opti-MEM. 10 μl of compounds were then added to the wells containing 30 μl Opti-MEM resulting in a final assay concentration range from 10 μM to 0.003 μM in 0.5% DMSO. Compounds were tested at 8 concentrations in quadruplicate data points.
row,IC50 or EC50 (agonist or antagonist mode not specified) [nM],Compound
1,< 100,"Cc1c(-c2cc(F)cc3c2cnn3S(C)(=O)=O)c(F)cc2c1-n1c(C)nnc1C(C)(C)N2 [Example 279, 7-Fluoro-8-(6-fluoro-1-methylsulfonyl-1H-indazol-4-yl)-1,4,4,9-tetramethyl-5H-[1,2,4]triazolo[4,3-a]quinoxaline]"
2,< 100,"Cc1nnc2n1-c1c(cc(F)c(-c3cc(F)cc4c3ccn4C3CC3)c1F)NC2(C)C [Example 2, 8-(1-cyclopropyl-6-fluoro-1H-indol-4-yl)-7,9-difluoro-1,4,4-trimethyl-4,5-dihydro-[1,2,4]triazolo[4,3-a]quinoxaline]"
3,100 to 1000,"Cc1nnc2n1-c1c(cc(F)c(-c3cc(F)cc4c3cnn4S(C)(=O)=O)c1F)NC2(C)C [Example 276, 7,9-Difluoro-8-(6-fluoro-1-methylsulfonyl-1H-indazol-4-yl)-1,4,4-trimethyl-5H-[1,2,4]triazolo [4,3-a]quinoxaline]"
4,100 to 1000,"CC(=O)n1ccc2c(-c3c(F)cc4c(c3F)-n3c(C)nnc3C(C)(C)N4)cccc21 [Example 20, 1-(4-(7,9-difluoro-1,4,4-trimethyl-4,5-dihydro-[1,2,4]triazolo[4,3-a]quinoxalin-8-yl)-1H-indol-1-yl)ethanone]"
5,1000 to 15000,"Cc1ccc(-c2c(F)cc3c(c2C(F)F)-n2c(C)nnc2C(C)(C)N3)c2ccn(S(C)(=O)=O)c12 [Example 512, 9-(Difluoro-methyl)-7-fluoro-1,4,4-trimethyl-8-(7-methyl-1-methylsulfonyl-1H-indol-4-yl)-5H-[1,2,4]triazolo[4,3-a]quinoxaline]"
6,< 100,"Cc1nnc2n1-c1c(cc(F)c(-c3cc(F)cc4c3cnn4CC(F)F)c1F)NC2(C)C [Example 489, 8-[1-(2,2-Difluoro-ethyl)-6-fluoro-1H-indazol-4-yl]-7,9-difluoro-1,4,4-trimethyl-5H-[1,2,4]triazolo [4,3-a]quinoxaline]"
7,100 to 1000,"Cc1nnc2n1-c1c(cc(F)c(-c3cccc4c3cnn4C)c1F)NC2(C)C [Example 221, 7,9-Difluoro-1,4,4-trimethyl-8-(1-methyl-1H-indazol-4-yl)-5H-[1,2,4]triazolo[4,3-a]quinoxaline]"
8,100 to 1000,"COc1c(-c2cccc3c2ccn3CC(F)F)c(F)cc2c1-n1c(C)nnc1C(C)(C)N2 [Example 397, 8-[1-(2,2-Difluoro-ethyl)-1H-indol-4-yl]-7-fluoro-9-methoxy-1,4,4-trimethyl-5H-[1,2,4]triazolo[4,3-a]quinoxaline]"
9,100 to 1000,"Cc1nnc2n1-c1c(cc(F)c(-c3cccc4c(C5CC5)c[nH]c34)c1Cl)NC2(C)C [Example 85, 9-Chloro-8-(3-cyclopropyl-1H-indol-7-yl)-7-fluoro-1,4,4-trimethyl-5H-[1,2,4]triazolo[4,3-a]quinoxaline]"
10,< 100,"Cc1c(-c2cc(F)cc3c2ccn3S(C)(=O)=O)c(OC(F)(F)F)cc2c1-n1c(C)nnc1C(C)(C)N2 [Example 403, 8-(6-Fluoro-1-methylsulfonyl-1H-indol-4-yl)-1,4,4,9-tetramethyl-7-(trifluoromethyloxy)-5H-[1,2,4]triazolo[4,3-a]quinoxaline]"
11,< 100,"Cc1c(-c2cc(F)cc3c(C)c[nH]c23)ccc2c1-n1c(C)nnc1C(C)(C)N2 [Example 452, 8-(5-Fluoro-3-methyl-1H-indol-7-yl)-1,4,4,9-tetramethyl-5H-[1,2,4]triazolo[4,3-a]quinoxaline]"
12,100 to 1000,"Cc1nnc2n1-c1c(cc(F)c(-c3cccc4c3ccn4C)c1C(F)F)NC2(C)C [Example 481, 9-(Difluoro-methyl)-7-fluoro-1,4,4-trimethyl-8-(1-methyl-1H-indol-4-yl)-5H-[1,2,4]triazolo[4,3-a] quinoxaline]"
13,100 to 1000,"Cc1c[nH]c2c(-c3c(OC(F)F)cc4c(c3F)-n3c(C)nnc3C(C)(C)N4)cc(F)cc12 [Example 267, 7-(Difluoro-methoxy)-9-fluoro-8-(5-fluoro-3-methyl-1H-indol-7-yl)-1,4,4-trimethyl-5H-[1,2,4]triazolo[4,3-a]quinoxaline]"
14,100 to 1000,"Cc1c(-c2cc(C(F)(F)F)cc3[nH]ccc23)c(F)cc2c1-n1c(C)nnc1C(C)(C)N2 [Example 470, 7-Fluoro-1,4,4,9-tetramethyl-8-[6-(trifluoromethyl)-1H-indol-4-yl]-5H-[1,2,4]triazolo[4,3-a]quinoxaline]"
15,< 100,"COc1cc2c(c(C(F)(F)F)c1-c1cc(F)cc3c(C)c[nH]c13)-n1c(C)nnc1C(C)(C)N2 [Example 407, 8-(5-Fluoro-3-methyl-1H-indol-7-yl)-7-methoxy-1,4,4-trimethyl-9-(trifluoromethyl)-5H-[1,2,4]triazolo[4,3-a]quinoxaline]"
16,1000 to 15000,"Cc1nnc2n1-c1c(cc(OC(F)F)c(-c3cccc4c3ccn4CC(F)F)c1F)NC2(C)C [Example 393, 8-[1-(2,2-Difluoro-ethyl)-1H-indol-4-yl]-7-(difluoro-methoxy)-9-fluoro-1,4,4-trimethyl-5H-[1,2,4]triazolo [4,3-a]quinoxaline]"
17,100 to 1000,"Cc1c(-c2cc(F)cc3c2ccn3CCO)c(OC(F)(F)F)cc2c1-n1c(C)nnc1C(C)(C)N2 [Example 471, 2-[6-Fluoro-4-[1,4,4,9-tetramethyl-7-(trifluoromethyloxy)-5H-[1,2,4]triazolo[4,3-a]quinoxalin-8-yl]-1H-indol-1-yl]-ethanol]"
18,100 to 1000,"CCc1nnc2n1-c1c(cc(F)c(-c3cc(C)cc4c(C#N)c[nH]c34)c1F)NC2(C)C [Example 17, 7-(1-ethyl-7,9-difluoro-4,4-dimethyl-4,5-dihydro-[1,2,4]triazolo[4,3-a]quinoxalin-8-yl)-5-methyl-1H-indole-3-carbonitrile]"
19,< 100,"Cc1nnc2n1-c1c(cc(F)c(-c3cc(F)cc4[nH]ccc34)c1F)NC2(C)C [Example 1, 7,9-difluoro-8-(6-fluoro-1H-indol-4-yl)-1,4,4-trimethyl-4,5-dihydro-[1,2,4]triazolo[4,3-a]quinoxaline]"
20,1000 to 15000,"Cc1nnc2n1-c1c(cc(F)c(-c3cccc4c3cc(C(F)(F)F)n4S(C)(=O)=O)c1F)NC2(C)C [Example 271, 7,9-Difluoro-1,4,4-trimethyl-8-[1-methylsulfonyl-2-(trifluoromethyl)-1H-indol-4-yl]-5H-[1,2,4]triazolo [4,3-a]quinoxaline]"
21,100 to 1000,"Cc1nnc2n1-c1c(cc(F)c(-c3ccc(Cl)c4[nH]ccc34)c1F)NC2(C)C [Example 529, 8-(7-Chloro-1H-indol-4-yl)-7,9-difluoro-1,4,4-trimethyl-5H-[1,2,4]triazolo[4,3-a]quinoxaline]"
22,< 100,"CCc1c(-c2cc(F)cc3c2ccn3S(C)(=O)=O)c(F)cc2c1-n1c(C)nnc1C(C)(C)N2 [Example 46, 9-Ethyl-7-fluoro-8-(6-fluoro-1-methylsulfonyl-1H-indol-4-yl)-1,4,4-trimethyl-5H-[1,2,4]triazolo[4,3-a]quinoxaline]"

# From patent US12110293B2, “Substituted triazolo quinoxaline derivatives” (GRÜNENTHAL GMBH, priority 2018, dated 2024)
